Measured values: patent US8802849B2, “Tricyclic benzo[4,5]thieno-[2,3-d]pyrimidine-4-yl-amin derivatives, their salts, process for producing the compounds and their pharmaceutical use” (Vichem Chemie Kutató Kft., priority 2008, dated 2014)

Columns and labels:
EGFR = EGFR (Homo sapiens, UniProt P00533); assay: EGFR kinase assay (33P-ATP filter plate); format: biochemical; conditions: for inhibition at 10 µM: 10 μM compound, read-out: EGFR percent of inhibition; for IC50: EGFR-PTK assay
How it was run: (§1)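 Cpd 10 μM final (from 10 mM DMSO stock); ATP = KmATP + 12.5 μCi/ml γ-33P-ATP; substrate 5× Km; enzyme titrated to 10% ATP turnover; 1 h RT; EDTA quench; MAPH filtration, scintillation count.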

AKT1/PKBa = AKT1/PKBa (Homo sapiens, UniProt P31749); assay: AKT1/PKBa kinase assay; format: biochemical; conditions: 10 μM compound; read-out: AKT1/PKBa percent of inhibition
How it was run: as §1

Abl = Abl (Homo sapiens, UniProt P00519); assay: Abl kinase assay; format: biochemical; conditions: 10 μM compound; read-out: Abl percent of inhibition
How it was run: as §1

CDK2/CycA = CDK2/CycA (Homo sapiens, UniProt P24941); assay: CDK2/CycA kinase assay; format: biochemical; conditions: 10 μM compound; read-out: CDK2/CycA percent of inhibition
How it was run: as §1

CK1-alpha = CK1-alpha (Homo sapiens, UniProt P48729); assay: CK1-alpha kinase assay; format: biochemical; conditions: 10 μM compound; read-out: CK1-alpha percent of inhibition
How it was run: as §1

GSK-3beta = GSK-3beta (Homo sapiens, UniProt P49841); assay: GSK-3beta kinase assay; format: biochemical; conditions: 10 μM compound; read-out: GSK-3beta percent of inhibition
How it was run: as §1

IKK-beta = molecular target: T1, IKK-beta (Homo sapiens, UniProt O14920); assay: IKK-beta kinase assay; format: biochemical; conditions: 10 μM compound; read-out: IKK-beta percent of inhibition
T1 sequence (O14920 1-756): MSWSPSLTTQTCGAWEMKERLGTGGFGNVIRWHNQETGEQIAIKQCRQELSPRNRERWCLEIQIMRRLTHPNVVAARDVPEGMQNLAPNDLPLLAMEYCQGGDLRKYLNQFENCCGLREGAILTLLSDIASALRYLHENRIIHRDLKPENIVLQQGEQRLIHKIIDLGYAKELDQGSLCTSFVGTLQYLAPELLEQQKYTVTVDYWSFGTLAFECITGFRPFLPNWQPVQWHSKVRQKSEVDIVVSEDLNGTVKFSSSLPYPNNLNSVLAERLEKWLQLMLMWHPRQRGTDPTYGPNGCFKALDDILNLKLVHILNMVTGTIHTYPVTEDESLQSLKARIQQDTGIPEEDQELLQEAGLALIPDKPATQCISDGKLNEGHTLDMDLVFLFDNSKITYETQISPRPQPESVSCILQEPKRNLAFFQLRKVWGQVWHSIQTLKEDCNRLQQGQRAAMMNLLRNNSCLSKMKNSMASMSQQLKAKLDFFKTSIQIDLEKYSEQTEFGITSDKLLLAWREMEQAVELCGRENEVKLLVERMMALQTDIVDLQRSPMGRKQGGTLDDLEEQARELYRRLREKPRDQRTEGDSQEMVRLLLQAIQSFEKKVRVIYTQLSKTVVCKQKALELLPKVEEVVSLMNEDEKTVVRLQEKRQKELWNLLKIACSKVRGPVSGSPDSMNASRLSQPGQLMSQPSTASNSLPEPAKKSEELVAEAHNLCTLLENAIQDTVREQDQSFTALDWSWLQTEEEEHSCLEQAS
How it was run: as §1

InsR = InsR (Homo sapiens, UniProt P06213); assay: InsR kinase assay; format: biochemical; conditions: 10 μM compound; read-out: InsR percent of inhibition
How it was run: as §1

Jnk1a1 = Jnk1a1 (Homo sapiens, UniProt P45983); assay: Jnk1a1 kinase assay; format: biochemical; conditions: 10 μM compound; read-out: Jnk1a1 percent of inhibition
How it was run: as §1

Kit = Kit (Homo sapiens, UniProt P10721); assay: Kit kinase assay; format: biochemical; conditions: 10 μM compound; read-out: Kit percent of inhibition
How it was run: as §1

MAPK-ERK1 = MAPK-ERK1 (Homo sapiens, UniProt P27361); assay: MAPK-ERK1 kinase assay; format: biochemical; conditions: 10 μM compound; read-out: MAPK-ERK1 percent of inhibition
How it was run: as §1

PDGFR-beta = PDGFR-beta (Homo sapiens, UniProt P09619); assay: PDGFR-beta kinase assay; format: biochemical; conditions: 10 μM compound; read-out: PDGFR-beta percent of inhibition
How it was run: as §1

ROCK2 = ROCK2 (Homo sapiens, UniProt O75116); assay: ROCK2 kinase assay; format: biochemical; conditions: 10 μM compound; read-out: ROCK2 percent of inhibition
How it was run: as §1

RSK1 = RSK1 (Homo sapiens, UniProt Q15418); assay: RSK1 kinase assay; format: biochemical; conditions: 10 μM compound; read-out: RSK1 percent of inhibition
How it was run: as §1

SRPK1 = SRPK1 (Homo sapiens, UniProt Q96SB4); assay: SRPK1 kinase assay; format: biochemical; conditions: 10 μM compound; read-out: SRPK1 percent of inhibition
How it was run: as §1

c-Raf = c-Raf (Homo sapiens, UniProt P04049); assay: c-Raf kinase assay; format: biochemical; conditions: 10 μM compound; read-out: c-Raf percent of inhibition
How it was run: as §1

c-Src = c-Src (Homo sapiens, UniProt P12931); assay: c-Src kinase assay; format: biochemical; conditions: 10 μM compound; read-out: c-Src percent of inhibition
How it was run: as §1

cMet = cMet (Homo sapiens, UniProt P08581); assay: cMet kinase assay; format: biochemical; conditions: 10 μM compound; read-out: cMet percent of inhibition
How it was run: as §1

P56Lck = P56Lck (Homo sapiens, UniProt P06239); assay: P56Lck kinase assay; format: biochemical; conditions: 10 μM compound; read-out: P56Lck percent of inhibition
How it was run: as §1

P70S6K = P70S6K (Homo sapiens, UniProt P23443); assay: P70S6K kinase assay; format: biochemical; conditions: 10 μM compound; read-out: P70S6K percent of inhibition
How it was run: as §1

Chain of c-Raf (P04049 whole entry, species assumed): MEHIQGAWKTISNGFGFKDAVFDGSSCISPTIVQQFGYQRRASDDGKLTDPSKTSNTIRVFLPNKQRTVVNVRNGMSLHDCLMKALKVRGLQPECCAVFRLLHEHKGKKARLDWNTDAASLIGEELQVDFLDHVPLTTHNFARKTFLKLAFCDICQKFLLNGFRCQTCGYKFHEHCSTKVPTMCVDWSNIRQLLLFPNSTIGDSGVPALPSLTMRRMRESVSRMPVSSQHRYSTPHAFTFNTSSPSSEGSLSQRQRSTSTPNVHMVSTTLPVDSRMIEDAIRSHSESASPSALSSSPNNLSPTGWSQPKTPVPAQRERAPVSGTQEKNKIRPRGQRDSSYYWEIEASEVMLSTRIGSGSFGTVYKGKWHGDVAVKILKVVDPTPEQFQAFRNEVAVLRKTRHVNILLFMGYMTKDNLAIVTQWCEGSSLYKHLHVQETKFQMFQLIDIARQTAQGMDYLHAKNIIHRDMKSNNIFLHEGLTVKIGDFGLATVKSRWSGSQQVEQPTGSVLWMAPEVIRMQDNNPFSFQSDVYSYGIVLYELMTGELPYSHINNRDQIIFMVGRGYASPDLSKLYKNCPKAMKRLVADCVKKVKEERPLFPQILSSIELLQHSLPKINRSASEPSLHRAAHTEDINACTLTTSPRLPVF
Chain of ROCK2 (O75116 whole entry, species assumed): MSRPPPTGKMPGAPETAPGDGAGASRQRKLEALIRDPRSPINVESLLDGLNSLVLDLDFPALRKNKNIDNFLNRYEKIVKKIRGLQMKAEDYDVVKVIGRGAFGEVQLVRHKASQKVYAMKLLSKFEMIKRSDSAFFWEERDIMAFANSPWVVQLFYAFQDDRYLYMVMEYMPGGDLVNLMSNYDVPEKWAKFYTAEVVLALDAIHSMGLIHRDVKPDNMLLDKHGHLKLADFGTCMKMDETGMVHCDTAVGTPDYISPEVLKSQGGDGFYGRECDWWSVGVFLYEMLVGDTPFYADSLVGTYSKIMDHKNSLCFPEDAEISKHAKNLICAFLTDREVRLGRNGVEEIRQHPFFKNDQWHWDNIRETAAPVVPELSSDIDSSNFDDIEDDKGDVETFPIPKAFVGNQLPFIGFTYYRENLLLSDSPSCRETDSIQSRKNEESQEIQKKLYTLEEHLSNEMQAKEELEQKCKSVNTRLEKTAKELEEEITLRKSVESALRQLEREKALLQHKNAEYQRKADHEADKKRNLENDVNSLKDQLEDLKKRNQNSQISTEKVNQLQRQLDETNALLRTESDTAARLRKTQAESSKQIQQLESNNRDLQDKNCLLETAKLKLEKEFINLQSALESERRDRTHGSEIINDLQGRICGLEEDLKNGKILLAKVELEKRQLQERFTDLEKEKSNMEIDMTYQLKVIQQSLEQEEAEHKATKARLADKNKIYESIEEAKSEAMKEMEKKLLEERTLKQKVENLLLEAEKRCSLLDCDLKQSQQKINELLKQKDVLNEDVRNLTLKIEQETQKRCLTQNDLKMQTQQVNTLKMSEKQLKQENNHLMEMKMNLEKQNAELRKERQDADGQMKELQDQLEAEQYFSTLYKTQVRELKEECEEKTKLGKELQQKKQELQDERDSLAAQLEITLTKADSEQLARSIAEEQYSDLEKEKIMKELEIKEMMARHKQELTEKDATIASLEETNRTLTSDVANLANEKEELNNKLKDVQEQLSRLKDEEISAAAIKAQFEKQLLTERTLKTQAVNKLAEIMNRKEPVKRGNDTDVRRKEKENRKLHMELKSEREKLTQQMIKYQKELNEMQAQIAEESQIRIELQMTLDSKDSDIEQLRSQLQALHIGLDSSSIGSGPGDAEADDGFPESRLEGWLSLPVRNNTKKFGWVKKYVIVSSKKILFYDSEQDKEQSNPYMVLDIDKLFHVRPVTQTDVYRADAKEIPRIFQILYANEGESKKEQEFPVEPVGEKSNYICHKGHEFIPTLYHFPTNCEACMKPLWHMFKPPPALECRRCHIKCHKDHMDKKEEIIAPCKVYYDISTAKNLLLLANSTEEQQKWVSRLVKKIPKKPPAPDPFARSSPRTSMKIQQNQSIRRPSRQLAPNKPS
Chain of SRPK1 (Q96SB4 whole entry, species assumed): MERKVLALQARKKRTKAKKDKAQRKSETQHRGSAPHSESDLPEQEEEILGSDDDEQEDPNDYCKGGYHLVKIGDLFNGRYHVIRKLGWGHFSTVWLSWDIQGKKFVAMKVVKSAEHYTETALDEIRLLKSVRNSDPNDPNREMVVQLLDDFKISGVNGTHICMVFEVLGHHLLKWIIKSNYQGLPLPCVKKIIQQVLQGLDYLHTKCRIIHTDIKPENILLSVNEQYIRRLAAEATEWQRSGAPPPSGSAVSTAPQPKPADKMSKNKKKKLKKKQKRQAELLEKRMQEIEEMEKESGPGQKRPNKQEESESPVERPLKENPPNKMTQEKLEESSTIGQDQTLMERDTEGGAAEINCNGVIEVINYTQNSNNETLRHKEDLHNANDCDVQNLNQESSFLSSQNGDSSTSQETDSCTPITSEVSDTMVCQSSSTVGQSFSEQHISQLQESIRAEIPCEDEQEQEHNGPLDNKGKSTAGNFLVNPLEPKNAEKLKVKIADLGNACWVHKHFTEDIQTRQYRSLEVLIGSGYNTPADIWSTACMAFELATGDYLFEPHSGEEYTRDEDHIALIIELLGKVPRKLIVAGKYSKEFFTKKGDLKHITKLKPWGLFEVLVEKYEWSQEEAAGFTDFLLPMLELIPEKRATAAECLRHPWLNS
Chain of P56Lck (P06239 whole entry, species assumed): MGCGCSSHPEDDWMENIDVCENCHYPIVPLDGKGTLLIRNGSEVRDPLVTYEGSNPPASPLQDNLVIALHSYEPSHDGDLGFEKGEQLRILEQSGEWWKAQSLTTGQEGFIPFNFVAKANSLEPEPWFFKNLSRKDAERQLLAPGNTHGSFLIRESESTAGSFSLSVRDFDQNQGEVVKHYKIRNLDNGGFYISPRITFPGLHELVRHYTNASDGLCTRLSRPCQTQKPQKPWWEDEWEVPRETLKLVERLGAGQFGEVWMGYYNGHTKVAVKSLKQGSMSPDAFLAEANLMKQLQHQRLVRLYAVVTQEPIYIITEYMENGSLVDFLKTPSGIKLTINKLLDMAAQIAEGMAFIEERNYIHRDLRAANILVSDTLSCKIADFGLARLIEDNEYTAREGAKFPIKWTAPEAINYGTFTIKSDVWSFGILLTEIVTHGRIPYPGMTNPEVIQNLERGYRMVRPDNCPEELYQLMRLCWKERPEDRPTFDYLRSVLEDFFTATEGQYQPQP
Chain of RSK1 (Q15418 whole entry, species assumed): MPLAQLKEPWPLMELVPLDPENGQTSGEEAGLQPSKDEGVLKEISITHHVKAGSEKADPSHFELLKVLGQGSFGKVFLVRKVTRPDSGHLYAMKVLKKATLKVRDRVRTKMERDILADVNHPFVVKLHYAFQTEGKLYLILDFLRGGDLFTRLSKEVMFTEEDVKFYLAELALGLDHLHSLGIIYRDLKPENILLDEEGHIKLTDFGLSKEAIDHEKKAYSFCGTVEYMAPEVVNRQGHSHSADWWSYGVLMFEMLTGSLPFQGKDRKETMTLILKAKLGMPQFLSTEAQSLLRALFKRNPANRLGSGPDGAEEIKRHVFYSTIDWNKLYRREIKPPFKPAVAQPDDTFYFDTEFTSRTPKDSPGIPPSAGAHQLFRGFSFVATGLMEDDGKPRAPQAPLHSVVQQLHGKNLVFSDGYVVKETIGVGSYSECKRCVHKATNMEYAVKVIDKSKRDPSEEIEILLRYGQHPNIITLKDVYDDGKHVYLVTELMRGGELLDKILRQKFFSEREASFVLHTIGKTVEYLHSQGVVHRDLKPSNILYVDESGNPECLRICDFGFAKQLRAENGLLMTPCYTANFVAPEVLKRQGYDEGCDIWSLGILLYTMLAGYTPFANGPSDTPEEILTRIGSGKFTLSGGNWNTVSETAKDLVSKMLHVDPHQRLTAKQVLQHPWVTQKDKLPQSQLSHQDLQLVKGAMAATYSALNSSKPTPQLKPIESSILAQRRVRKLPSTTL
Chain of P70S6K (P23443 whole entry): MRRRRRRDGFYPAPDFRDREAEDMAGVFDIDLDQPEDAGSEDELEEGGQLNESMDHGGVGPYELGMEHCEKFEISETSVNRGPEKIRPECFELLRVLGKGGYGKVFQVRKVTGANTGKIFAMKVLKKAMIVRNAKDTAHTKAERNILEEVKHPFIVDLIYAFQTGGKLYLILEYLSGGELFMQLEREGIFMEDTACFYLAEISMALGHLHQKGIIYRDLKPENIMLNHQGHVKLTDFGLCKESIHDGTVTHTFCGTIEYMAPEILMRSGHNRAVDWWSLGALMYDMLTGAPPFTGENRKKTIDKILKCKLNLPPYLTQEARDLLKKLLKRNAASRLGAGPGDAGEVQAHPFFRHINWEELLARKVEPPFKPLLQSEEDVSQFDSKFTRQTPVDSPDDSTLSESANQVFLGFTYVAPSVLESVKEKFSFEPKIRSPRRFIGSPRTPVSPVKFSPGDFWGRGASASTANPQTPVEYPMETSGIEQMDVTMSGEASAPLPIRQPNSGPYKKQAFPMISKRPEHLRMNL
Chain of Jnk1a1 (P45983 1-384 isoform P45983-2): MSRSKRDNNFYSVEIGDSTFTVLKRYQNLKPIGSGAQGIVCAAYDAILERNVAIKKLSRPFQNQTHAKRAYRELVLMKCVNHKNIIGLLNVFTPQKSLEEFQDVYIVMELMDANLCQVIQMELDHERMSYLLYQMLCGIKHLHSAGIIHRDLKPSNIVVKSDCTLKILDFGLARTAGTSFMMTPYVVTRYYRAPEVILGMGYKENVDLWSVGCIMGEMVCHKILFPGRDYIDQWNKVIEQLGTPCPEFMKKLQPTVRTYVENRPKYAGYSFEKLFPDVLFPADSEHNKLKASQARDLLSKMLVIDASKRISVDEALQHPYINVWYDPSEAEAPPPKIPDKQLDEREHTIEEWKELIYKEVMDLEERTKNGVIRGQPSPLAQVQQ

Fc1cccc(Nc2ncnc3sc4ccccc4c23)c1 [Compound 21, Benzo[4,5]thieno[2,3-d]pyrimidin-4-yl-(3-fluoro-phenyl)-amine]
inhibition at 10 µM (EGFR): 98% | IC50 (EGFR): 26.9 nM | inhibition at 10 µM (AKT1/PKBa): 3% | inhibition at 10 µM (Abl): -4% | inhibition at 10 µM (CDK2/CycA): -10% | inhibition at 10 µM (CK1-alpha): 0% | inhibition at 10 µM (GSK-3beta): 3% | inhibition at 10 µM (IKK-beta): 2% | inhibition at 10 µM (InsR): 7% | inhibition at 10 µM (Jnk1a1): -2% | inhibition at 10 µM (Kit): -4% | inhibition at 10 µM (MAPK-ERK1): 1% | inhibition at 10 µM (PDGFR-beta): -3% | inhibition at 10 µM (ROCK2): 4% | inhibition at 10 µM (RSK1): 1% | inhibition at 10 µM (SRPK1): 8% | inhibition at 10 µM (c-Raf): -2% | inhibition at 10 µM (c-Src): 3% | inhibition at 10 µM (cMet): 1% | inhibition at 10 µM (P56Lck): -9% | inhibition at 10 µM (P70S6K): 7% | melting point: 171 °C

Clc1cccc(Nc2ncnc3sc4ccccc4c23)c1 [Compound 22, Benzo[4,5]thieno[2,3-d]pyrimidin-4-yl-(3-chloro-phenyl)-amine]
inhibition at 10 µM (EGFR): 98% | inhibition at 10 µM (AKT1/PKBa): -7% | inhibition at 10 µM (Abl): 8% | inhibition at 10 µM (CDK2/CycA): -6% | inhibition at 10 µM (CK1-alpha): -2% | inhibition at 10 µM (GSK-3beta): 5% | inhibition at 10 µM (IKK-beta): 11% | inhibition at 10 µM (InsR): 18% | inhibition at 10 µM (Jnk1a1): 0% | inhibition at 10 µM (Kit): 1% | inhibition at 10 µM (MAPK-ERK1): 5% | inhibition at 10 µM (PDGFR-beta): -8% | inhibition at 10 µM (ROCK2): 4% | inhibition at 10 µM (RSK1): -2% | inhibition at 10 µM (SRPK1): 6% | inhibition at 10 µM (c-Raf): -6% | inhibition at 10 µM (c-Src): 9% | inhibition at 10 µM (cMet): 5% | inhibition at 10 µM (P56Lck): 11% | inhibition at 10 µM (P70S6K): 5% | melting point: 168 °C

Brc1cccc(Nc2ncnc3sc4ccccc4c23)c1 [Compound 23, Benzo[4,5]thieno[2,3-d]pyrimidin-4-yl-(3-bromo-phenyl)-amine]
inhibition at 10 µM (EGFR): 99% | IC50 (EGFR): 8.08 nM | inhibition at 10 µM (AKT1/PKBa): 9% | inhibition at 10 µM (Abl): -10% | inhibition at 10 µM (CDK2/CycA): 12% | inhibition at 10 µM (CK1-alpha): 7% | inhibition at 10 µM (GSK-3beta): -3% | inhibition at 10 µM (IKK-beta): -5% | inhibition at 10 µM (InsR): 4% | inhibition at 10 µM (Jnk1a1): -10% | inhibition at 10 µM (Kit): 6% | inhibition at 10 µM (MAPK-ERK1): 8% | inhibition at 10 µM (PDGFR-beta): 10% | inhibition at 10 µM (ROCK2): 2% | inhibition at 10 µM (RSK1): -4% | inhibition at 10 µM (SRPK1): 6% | inhibition at 10 µM (c-Raf): 3% | inhibition at 10 µM (c-Src): 7% | inhibition at 10 µM (cMet): 4% | inhibition at 10 µM (P56Lck): 4% | inhibition at 10 µM (P70S6K): -1% | melting point: 160 °C
